Experiments:
Format in all cases: biochemical
hMAO-A = target: T1, hMAO-A (Homo sapiens, UniProt P21397); assay: Amplex Red MAO fluorimetric assay, % inhibition at […]; conditions: read-out: hMAO-A % Inh 100 μM
T1 construct: gene MAOA; recombinant hMAO-A
T1 sequence (P21397 1-527): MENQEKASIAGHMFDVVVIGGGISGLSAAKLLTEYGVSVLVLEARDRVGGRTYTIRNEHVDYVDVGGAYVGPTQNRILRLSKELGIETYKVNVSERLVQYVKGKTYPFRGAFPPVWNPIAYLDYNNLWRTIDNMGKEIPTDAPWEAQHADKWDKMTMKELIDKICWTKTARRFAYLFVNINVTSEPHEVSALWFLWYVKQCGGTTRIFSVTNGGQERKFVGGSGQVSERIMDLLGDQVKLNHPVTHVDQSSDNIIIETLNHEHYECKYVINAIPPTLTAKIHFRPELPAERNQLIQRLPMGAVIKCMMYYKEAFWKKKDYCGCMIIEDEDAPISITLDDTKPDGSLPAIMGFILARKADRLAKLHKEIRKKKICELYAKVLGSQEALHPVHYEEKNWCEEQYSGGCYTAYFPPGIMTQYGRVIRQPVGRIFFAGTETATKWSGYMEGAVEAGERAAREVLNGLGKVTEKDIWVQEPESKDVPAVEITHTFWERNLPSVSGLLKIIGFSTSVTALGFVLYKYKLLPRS

hMAO-B [1] = target: T2, hMAO-B (Homo sapiens, UniProt P27338); assay: as above; conditions: read-out: hMAO-B % Inh 100 μM
T2 construct: gene MAOB; recombinant hMAO-B
T2 sequence (P27338 2-520): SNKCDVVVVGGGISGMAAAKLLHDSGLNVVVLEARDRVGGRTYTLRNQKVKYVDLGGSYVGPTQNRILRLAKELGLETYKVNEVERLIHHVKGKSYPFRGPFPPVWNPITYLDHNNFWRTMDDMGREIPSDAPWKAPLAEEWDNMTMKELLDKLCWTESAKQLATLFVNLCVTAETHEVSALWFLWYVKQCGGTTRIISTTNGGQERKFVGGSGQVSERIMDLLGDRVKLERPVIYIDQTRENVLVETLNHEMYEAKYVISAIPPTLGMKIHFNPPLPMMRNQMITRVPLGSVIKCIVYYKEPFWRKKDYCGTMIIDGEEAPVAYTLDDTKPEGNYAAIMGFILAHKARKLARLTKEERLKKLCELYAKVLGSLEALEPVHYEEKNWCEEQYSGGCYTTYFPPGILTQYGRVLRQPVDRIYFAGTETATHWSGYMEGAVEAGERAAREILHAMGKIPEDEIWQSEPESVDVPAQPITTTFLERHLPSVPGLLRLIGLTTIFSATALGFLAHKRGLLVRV

hBuChE = target: T3, hBuChE (Homo sapiens, UniProt P06276); assay: Ellman assay, % inhibition at […]; conditions: read-out: hBuChE % Inh 100 μM
T3 construct: gene BCHE; BuChE isolated from human serum

hMAO-B [2] = target: T2, hMAO-B; assay: Amplex Red MAO fluorimetric assay, recombinant enzyme, p-tyramine substrate

T3 sequence (P06276 29-602): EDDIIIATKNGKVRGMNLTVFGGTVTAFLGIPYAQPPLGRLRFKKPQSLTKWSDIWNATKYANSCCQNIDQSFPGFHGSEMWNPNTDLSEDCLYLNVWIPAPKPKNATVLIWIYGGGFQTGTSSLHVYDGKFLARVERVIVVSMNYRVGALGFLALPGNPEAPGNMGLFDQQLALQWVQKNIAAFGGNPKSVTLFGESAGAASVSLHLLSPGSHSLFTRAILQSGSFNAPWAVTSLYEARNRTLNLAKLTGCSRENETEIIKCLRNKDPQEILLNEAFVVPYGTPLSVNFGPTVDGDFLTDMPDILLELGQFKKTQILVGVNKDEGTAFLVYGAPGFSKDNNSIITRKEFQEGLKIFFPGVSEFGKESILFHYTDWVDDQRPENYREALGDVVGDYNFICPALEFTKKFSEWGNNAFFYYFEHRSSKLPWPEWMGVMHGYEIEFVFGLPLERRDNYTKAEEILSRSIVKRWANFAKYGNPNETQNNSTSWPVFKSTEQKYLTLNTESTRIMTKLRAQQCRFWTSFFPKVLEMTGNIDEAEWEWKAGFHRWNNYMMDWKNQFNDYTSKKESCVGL

SMILES | inhibition at 100 µM (hMAO-A) [%] | inhibition at 100 µM (hMAO-B [1]) [%] | inhibition at 100 µM (hBuChE) [%] | IC50 (hMAO-B [2]) [µM]
O=C(/C=C(O)/C=C/c1cc(O)c(O)c(O)c1)/C=C/c1cc2cc(O)c(O)cc2oc1=O [compound 18, 6,7-Dihydroxy-3-(7-(3′,4′,5′-trihydroxyphenyl)-3,5-dioxohepta-1,6-dien-1-yl)coumarin] | 51.5 ± 3.45 | 55.7 ± 3.74 | – | –
O=C(/C=C/c1c(O)cc(O)cc1O)CC(=O)/C=C/c1cc2cc(O)c(O)cc2oc1=O [compound 15, 6,7-Dihydroxy-3-(7-(2′,4′,6′-trihydroxyphenyl)-3,5-dioxohepta-1,6-dien-1-yl)coumarin] | – | – | 50.9 ± 3.41 | –
O=C(/C=C(O)/C=C/c1cc(O)c(O)c(O)c1)/C=C/c1cc2ccc(O)c(O)c2oc1=O [compound 14, 7,8-Dihydroxy-3-(7-(3′,4′,5′-trihydroxyphenyl)-3,5-dioxohepta-1,6-dien-1-yl)coumarin] | 54.3 ± 3.64 | – | – | –
O=C(/C=C(O)/C=C/c1cc(O)c(O)cc1O)/C=C/c1cc2cc(O)c(O)cc2oc1=O [compound 16, 6,7-Dihydroxy-3-(7-(2′,4′,5′-trihydroxyphenyl)-3,5-dioxohepta-1,6-dien-1-yl)coumarin] | 58.2 ± 3.9 | – | – | 26.2 ± 1.76
O=C(/C=C(O)/C=C/c1cc(O)c(O)cc1O)/C=C/c1cc2ccc(O)c(O)c2oc1=O [compound 12, 7,8-Dihydroxy-3-(7-(2′,4′,5′-trihydroxyphenyl)-3,5-dioxohepta-1,6-dien-1-yl)coumarin] | 60.9 ± 4.09 | – | – | –
